Laboratory results published in patent US20250304571A1, “BIOLOGICALLY ACTIVE COMPOUNDS AND METHODS THEREOF” (Suzhou Keen Therapeutics Co., Ltd., priority 2022, published 2025).

These molecules were tested on 786-O (renal cell carcinoma) cells (assay: Cell viability (CellTiter Glo) assay, inhibition of 786-O cell proliferation). Settings: Homo sapiens, 786-0, 72 h, read-out: IC50, inhibition of 786-O cell proliferation.
Assay type: cell-based

| Compound | IC50 |
| --- | --- |
| CC(C)N(CC(F)(F)F)C(=N)OCc1ncc2c(n1)N(c1ccc(Oc3ccccc3)cc1)CCO2 [Compound E125] | 500 to 5000 nM |
| CC(C)N(CC(F)(F)F)C(=N)OCc1ncc2c(n1)N(c1ccc(OC3CCCCC3)nc1)CCO2 [Compound E126] | 500 to 5000 nM |

Same assay, conditions: Homo sapiens, 786-0; 786-O cells, 72 hours, CellTiter Glo; read-out: IC50, inhibition of 786-O cell proliferation

| Compound | IC50 |
| --- | --- |
| CNc1nc(COC(=N)N2CCC[C@@H]2C(F)(F)F)nc2c1C(C)(C)C(=O)N2c1cnc2c(C(C)C)cnn2c1 [Compound E67] | < 100 nM |
| CNc1nc(COC(=N)N2CCC[C@@H]2C(F)(F)F)nc2c1C(C)(C)C(=O)N2c1ccc2c(c1)CCO2 [Compound E68] | < 100 nM |
| CNc1nc(COC(=N)N2CCC[C@@H]2C(F)(F)F)nc2c1C(C)(C)C(=O)N2c1ccc(N2C[C@@H](C)O[C@@H](C)C2)nc1 [Compound E69] | < 100 nM |
| CC1(C)C(=O)N(c2ccc(N3CCC4(CC3)CC4)nc2)c2nc(COC(=N)N3CCC[C@@H]3C(F)(F)F)nc(N)c21 [Compound E70] | < 100 nM |
| N=C(OCc1nc(NC2CC2)c2c(n1)N(c1ccc(N3CCOCC3)cc1)C(=O)C21CCCCC1)N1CCC[C@@H]1C(F)(F)F [Compound E71] | < 100 nM |
| N=C(OCc1ncc2c(n1)N(c1ccc(N3CCOCC3)cc1)C(=O)C21CCCC1)N1CCC[C@@H]1C(F)(F)F [Compound E72] | < 100 nM |
| N=C(OCc1nc(NC2CC2)c2c(n1)N(c1ccc(N3CCOCC3)c(F)c1)C(=O)C21CCCCC1)N1CCC[C@@H]1C(F)(F)F [Compound E73] | < 100 nM |
| CC1(C)C(=O)N(c2ccc(N3CCOCC3)cc2)c2nc(COC(=N)N3CCC[C@@H]3C(F)(F)F)nc(N3CC(F)(F)C3)c21 [Compound E74] | 100 to 500 nM |
| CCN(CC)c1ncc(N2C(=O)C3(CCCC3)c3c(N)nc(COC(=N)N4CCC[C@@H]4C(F)(F)F)nc32)cn1 [Compound E75] | < 100 nM |
| CCN(CC)c1ncc(N2C(=O)C3(CCCC3)c3c(NC(C)C)nc(COC(=N)N4CCC[C@@H]4C(F)(F)F)nc32)cn1 [Compound E76] | 100 to 500 nM |
| COc1cc(N2CCOCC2)ccc1N1CC(C)(C)c2c(N)nc(COC(=N)N3CCC[C@@H]3C(F)(F)F)nc21 [Compound E77] | < 100 nM |
| N=C(OCc1nc(N)c2c(n1)N(c1cnc(N3CCOCC3)nc1)C(=O)C21CCCC1)N1CCC[C@@H]1C(F)(F)F [Compound E78] | < 100 nM |
| CC(C)Nc1nc(COC(=N)N2CCC[C@@H]2C(F)(F)F)nc2c1C1(CCCC1)C(=O)N2c1cnc(N2CCOCC2)nc1 [Compound E79] | 100 to 500 nM |
| CNc1nc(COC(=N)N2CCC[C@@H]2C(F)(F)F)nc2c1C1(CCCC1)C(=O)N2c1cnc(N2CCOCC2)nc1 [Compound E80] | < 100 nM |
| CC(C)Nc1nc(COC(=N)N2CCC[C@@H]2C(F)(F)F)nc2c1C1(CCCC1)C(=O)N2c1cnc(N2CCC(F)(F)C2)nc1 [Compound E81] | < 100 nM |
| N=C(OCc1nc(N)c2c(n1)N(c1cnc(N3CCC(F)(F)C3)nc1)C(=O)C21CCCC1)N1CCC[C@@H]1C(F)(F)F [Compound E82] | < 100 nM |
| CNc1nc(COC(=N)N2CCC[C@@H]2C(F)(F)F)nc2c1C1(CCCC1)C(=O)N2c1cnc(N2CCC(F)(F)C2)nc1 [Compound E83] | < 100 nM |
| N=C(OCc1nc(N)c2c(n1)N(c1cnc(N3CCC(F)(F)CC3)nc1)C(=O)C21CCCC1)N1CCC[C@@H]1C(F)(F)F [Compound E84] | < 100 nM |
| N=C(OCc1nc(N)c2c(n1)N(c1cnc(N3CC(F)(F)C3)nc1)C(=O)C21CCCC1)N1CCC[C@@H]1C(F)(F)F [Compound E85] | < 100 nM |

| Compound | IC50 |
| --- | --- |
| CNc1nc(COC(=N)N2CCC[C@@H]2C(F)(F)F)nc2c1C1(CCCC1)C(=O)N2c1cnc(N2CC(F)(F)C2)nc1 [Compound E86] | < 100 nM |
| CC1(C)C(=O)N(c2cnc(C3CCOCC3)nc2)c2nc(COC(=N)N3CCC[C@@H]3C(F)(F)F)nc(NC3CCC3)c21 [Compound E89] | 500 to 5000 nM |
| N=C(OCc1nc(N)c2c(n1)N(c1cnc(C(F)(F)F)nc1)C(=O)C21CCCC1)N1CCC[C@@H]1C(F)(F)F [Compound E90] | 100 to 500 nM |
| N=C(OCc1nc(NC2CCC2)c2c(n1)N(c1ccc(N3CCOCC3)cc1)C(=O)C21CCCC1)N1CCC[C@@H]1C(F)(F)F [Compound E91] | < 100 nM |
| C[C@@H]1CN(c2ncc(N3C(=O)C4(CCCC4)c4c(NC5CCC5)nc(COC(=N)N5CCC[C@@H]5C(F)(F)F)nc43)cn2)C[C@H](C)O1 [Compound E92, [4′-(cyclobutylamino)-7′-{2-[(2R,6S)-2,6-dimethylmorpholin-4-yl]pyrimidin-5-yl}-6′-oxo-6′,7′-dihydrospiro[cyclopentane-1,5′-pyrrolo[2,3-d]pyrimidin]-2′-yl]methyl (2R)-2-(trifluoromethyl)pyrrolidine-1-carboximidate] | 100 to 500 nM |
| CNc1nc(COC(=N)N2CCC[C@@H]2C(F)(F)F)nc2c1C1(CCCC1)C(=O)N2c1cnc(C2=CCOCC2)nc1 [Compound E95] | < 100 nM |
| CNc1nc(COC(=N)N2CCC[C@@H]2C(F)(F)F)nc2c1C1(CCCC1)C(=O)N2c1cnc(N2CC3CC2CO3)nc1 (stereo partly drawn) [Compound E96, (7′-(2-(2-oxa-5-azabicyclo[2.2.1]heptan-5-yl)pyrimidin-5-yl)-4′-(methylamino)-6′-oxo-6′,7′-dihydrospiro[cyclopentane-1,5′-pyrrolo[2,3-d]pyrimidin]-2′-yl)methyl (2R)-2-(trifluoromethyl)pyrrolidine-1-carbimidate] | 100 to 500 nM |
| N=C(OCc1nc(N)c2c(n1)N(c1cnc(N3CC4CC3CO4)nc1)C(=O)C21CCCC1)N1CCC[C@@H]1C(F)(F)F (some centres unmarked) [Compound E98] | 500 to 5000 nM |
| CC1(C)CC(c2ncc(N3C(=O)C4(CCCC4)c4c(N)nc(COC(=N)N5CCOCC5C(F)(F)F)nc43)cn2)CC(C)(C)O1 (centres unmarked) [Compound E101] | 500 to 5000 nM |
| CNc1nc(COC(=N)N2CCC[C@@H]2C(F)(F)F)nc2c1C1(CCCC1)C(=O)N2c1cnc(C2CC(C)(C)OC(C)(C)C2)nc1 [Compound E102] | 100 to 500 nM |
| C[C@@H]1CN(c2ncc(N3C(=O)C4(CCCC4)c4c(N)nc(COC(=N)N5CCOC[C@H]5C(F)(F)F)nc43)cn2)C[C@H](C)O1 [Compound E104A] | 100 to 500 nM |
| C[C@@H]1CN(c2ncc(N3C(=O)C4(CCCC4)c4c(N)nc(COC(=N)N5CCOC[C@@H]5C(F)(F)F)nc43)cn2)C[C@H](C)O1 [Compound E104B] | < 100 nM |
| C[C@@H]1CN(c2ncc(N3C(=O)C(C)(C)c4c(N)nc(COC(=N)N5CCC[C@@H]5C(F)(F)F)nc43)cn2)C[C@H](C)O1 [Compound E105] | < 100 nM |
| CNc1nc(COC(=N)N2CCC[C@@H]2C(F)(F)F)nc2c1C(C)(C)CN2c1ccc(N2CCOCC2)cc1OC [Compound E106] | < 100 nM |
| CNc1nc(COC(=N)N2CCC[C@H]2C(F)(F)F)nc2c1C(C)(C)CN2c1ccc(N2CCOCC2)cc1OC [Compound E107] | < 100 nM |
| CNc1nc(COC(=N)N2CCC[C@H]2C(F)(F)F)nc2c1C(C)(C)C(=O)N2c1ccc(N2CCOCC2)cc1 [Compound E108] | < 100 nM |
| CCN(CC(F)(F)F)C(=N)OCc1nc(NC)c2c(n1)N(c1ccc(N3CCOCC3)cc1)C(=O)C2(C)C [Compound E109] | < 100 nM |
| N=C(OCc1nc(NC2CC2)c2c(n1)N(c1cnc(N3CCOCC3)nc1)C(=O)C21CCCC1)N1CCC[C@@H]1C(F)(F)F [Compound E111] | < 100 nM |
| N=C(OCc1nc(NC2CC2)c2c(n1)N(c1cnc(N3CCC(F)(F)CC3)nc1)C(=O)C21CCCC1)N1CCC[C@@H]1C(F)(F)F [Compound E112] | < 100 nM |

| Compound | IC50 |
| --- | --- |
| CNc1nc(COC(=N)N2CCCC2C(F)(F)F)nc2c1C(C)(C)C(=O)N2c1ccc(N2C[C@@H](C)O[C@@H](C)C2)nc1 (some centres unmarked) [Compound E113] | < 100 nM |
| CNc1nc(COC(=N)N2CCC[C@@H]2C(F)(F)F)nc2c1C(C)(C)C(=O)N2c1ccc(N2CCOCC2)cc1 [Compound E114] | < 100 nM |
| CNc1nc(COC(=N)N2CC(F)(F)C[C@H]2C)nc2c1C(C)(C)C(=O)N2c1ccc(N2C[C@@H](C)O[C@@H](C)C2)nc1 [Compound E115] | 100 to 500 nM |
| CNc1nc(COC(=N)N2CC(F)(F)C[C@@H]2C)nc2c1C(C)(C)C(=O)N2c1ccc(N2C[C@@H](C)O[C@@H](C)C2)nc1 [Compound E116] | 100 to 500 nM |
| CC1(C)C(=O)N(c2ccc(N3CCOCC3)cc2)c2nc(COC(=N)N3CCC[C@@H]3C(F)(F)F)nc(N)c21 [Compound E117] | < 100 nM |
| N=C(OCc1ncc2c(n1)N(c1cnc(N3CCC(F)(F)CC3)nc1)C(=O)C21CCCC1)N1CCC[C@@H]1C(F)(F)F [Compound E118] | < 100 nM |
| N=C(OCc1ncc(C2CCCO2)c(Nc2ccc(Oc3ccccc3)cc2)n1)N1CCCCC1C(F)(F)F (centres unmarked) [Compound E119] | < 100 nM |
| CC(C)N(CC(F)(F)F)C(=N)OCc1ncc(C2=CCOCC2)c(Nc2ccc(N3CCOCC3)nc2)n1 [Compound E120] | 500 to 5000 nM |
| CC1(C)CN(c2ccc(Oc3ccccc3)cc2)c2nc(COC(=N)N3CCCC34CCOCC4)ncc21 [Compound E121] | 500 to 5000 nM |
| N=C(OCc1nc(N)nc(Nc2ccc(Oc3ccccc3)cc2)n1)N1CCCC12CCOCC2 [Compound E122] | 500 to 5000 nM |
| CC(C)N(CC(F)(F)F)C(=N)OCc1ncc(C2CCOCC2)c(Nc2ccc(N3CCOCC3)nc2)n1 [Compound E124] | > 5000 nM |
| CC(C)N(CC(F)(F)F)C(=N)OCc1ncc2c(n1)N(c1ccc(OC3CCCCC3)nc1)CC2(C)C [Compound E127] | 100 to 500 nM |
| CCC(CC)Oc1ccc(N2CC(C)(C)c3cnc(COC(=N)N(CC(F)(F)F)C(C)C)nc32)nc1 [Compound E128] | 100 to 500 nM |
| CC(C)N(CC(F)(F)F)C(=N)OCc1ncc2c(n1)N(c1ccc(N3CCOCC3)nc1)CC2(C)C [Compound E129] | 100 to 500 nM |
| CC(C)Oc1cnc(COC(=N)N(CC(F)(F)F)C(C)C)nc1Nc1ccc(Oc2ccccc2)cc1 [Compound E131] | 100 to 500 nM |
| CC(C)N(CC(F)(F)F)C(=N)OCc1ncc2c(n1)N(c1ccc(OC3CCCC3)nc1)C(=O)C21CC1 [Compound E132] | 100 to 500 nM |
| CC(C)Oc1ccc(N2C(=O)C3(CC3)c3cnc(COC(=N)N(CC(F)(F)F)C(C)C)nc32)cn1 [Compound E133] | 500 to 5000 nM |
| CC(C)N(CC(F)(F)F)C(=N)OCc1ncc2c(n1)N(C1CCC(Oc3ccccn3)CC1)C(=O)C21CC1 (centres unmarked) [Compound E134] | 500 to 5000 nM |
| CC(C)N(CC(F)(F)F)C(=N)OCc1ncc2c(n1)N(c1ccc(OC3CCCCC3)cn1)CC2(C)C [Compound E135] | 500 to 5000 nM |
